Here are results for one molecule from patent US20220142959A1, “LEUCINE, ACETYL LEUCINE, AND RELATED ANALOGS FOR TREATING DISEASE” (priority 2019, published 2022).

The structures appear in SMILES notation.

For test [1], the system named is LC3-II and APP-CTFs. Description: EAL flux in NPC1 mice (cerebellum LC3-II and APP-CTFs). Type of test: in vivo, mouse. As to conditions: treated 3 weeks. The source says: FIG. 14 is a histogram of the ratio of LC3-II expression to βIII-tubulin in the cerebellum of mouse NPC1 brains at 9-12 weeks of age treated with ADLL, ALL, ADL, DLL, LL, DL, LLE, and miglustat (miglu.) for 3 weeks relative to untreated NPC1 cerebellum (n=4, mean±S.E.M).
FIG. 15 is a histogram of the ratio of APP-CTFs: full-length APP expression in the cerebellum of mouse NPC1 brains at 9-12 weeks of age treated with ADLL, ALL, ADL, DLL, LL, DL, LLE, and miglustat (miglu.) for 3 weeks relative to untreated NPC1 cerebellum (n=4, mean±S.E.M).
FIG. 16 is a histogram of the ratio of APP-CTF-6: full-length APP expression in the cerebellum of mouse NPC1 brains at 9-12 weeks of age treated with ADLL, ALL, ADL, DLL, LL, DL, and LLE for 3 weeks relative to untreated NPC1 cerebellum.
FIG. 17 is a histogram of the ratio of APP-CTF-7: full-length APP expression in the cerebellum of mouse NPC1 brains at 9-12 weeks of age treated with ADLL, ALL, ADL, DLL, LL, DL, and LLE for 3 weeks relative to untreated NPC1 cerebellum (n=4, mean±S.E.M).
The efficacy of ADLL, ALL, ADL, DLL, LL, DL, and LLE in alleviating the impairment of EAL flux in NPC1 mice was investigated. […] Without wishing to be bound by any particular theory, it is possible that ADL and LLE reduced autophagic vacuole (AV) build-up by inhibiting autophagosome formation, possibly through the activation mTORC1. […] Also, acetyl L-leucine (ALL), acetyl D-leucine (ADL) and L-leucine (LL) reduced CTF-7 expression, indicating some improvement in lysosomal proteolysis (FIG. 17).

The test system of test [2] is TUNEL positive cells. Description: TUNEL assay on brain sections after CCI induced TBI. The format is in vivo. As to conditions: injured mice fed with NALL vs vehicle fed TBI mice. The procedure:
Controlled cortical impact (CCI) induced TBI was performed in male C57BL6/J mice (20-25 g). Briefly, after a 10-mm midline incision was made over the skull, the skin and fascia were retracted, and a 4-mm craniotomy was made on the central aspect of the left parietal bone of mice under surgical anesthesia (2-3% isoflurane evaporated in a gas mixture containing 70% N20 and 30% 02). Moderate injury was induced in the exposed brain by a custom microprocessor-controlled and compressed air driven pneumatic impactor of 3.5 mm diameter tip with the impact velocity of 6 m/s and a deformation depth of 2 mm.
N-Acetyl-L-Leucine (“NAL” or “NALL”) was dissolved in ethanol to prepare a 50 mg/ml solution which was then diluted in water to give a 10 mg/ml solution. About 0.25 ml of the NAL solution (10 mg/ml) was orally administered in mice at a […] (2.5 mg NAL/25 g mouse) via oral gavage each day after CCI induced TBI for 4 days. Mice were also fed with NAL at 0.5 mg/kg chow powder chow mixed with diet gel for up to 7 days after injury.
The level of α-fodrin cleavage products in NALL treated, vehicle treated sham, and TBI mouse cortices were determined by Western blot analysis and using the TUNEL assay to assess whether NALL treatment decreases cortical cell death after TBI. […]

With `CC(=O)N[C@@H](CC(C)C)C(=O)O` [ALL, acetyl-L-leucine], the “CTF-7 expression / clearance” value in test [1] was “reduced”. For the same molecule, in test [2], the “TUNEL positive cells in brain sections” value is listed as “Lower levels”.
